Measured values as given in patent EP1885364B1, “HALOGENATED QUINDOLINE DIMERS FOR THE TREATMENT OF CANCER” (Crystax Pharmaceuticals, S.L., priority 2005, dated 2006).

What was measured:
Type in all cases: cell-based
IM-9 bone marrow myeloma = experiment: MTT in vitro cytotoxicity, IM-9; details: Homo sapiens, IM-9 cells, concentrations until 100 µM, incubation until 72 h
Method: (§1) These compounds have been tested in a greater number of different cell lines. IC50 is the compound concentration at which 50% of a specific cell type die in a standardized assay, and thus a measure of cytotoxicity. […]
(§2) The in vitro cytotoxicity of the compounds of the present invention was evaluated by colorimetric assays with tetrazol salts (MTT) on Jurkat clon E6-1 leukemia, on GLC-4 clon carcinoma, on K-562 chronic myelogenous leukemia, on A549 lung carcinoma, on RPMI-1788 leukocytes of peripherial blood from healthy […], on MCF-7 breast adenocarcinoma, on Capan-2 pancreas adenocarcinoma, on Colo320HSR colon carcinoma, on SW-837 rectum adenocarcinoma, on IM-9 bone marrow myeloma, on IMR-32 neuroblastoma and on MT-4 mixed heart's and peripheral blood's lymphocytes of patients with T-cell leukemia human cell lines, according to the protocol described by Mosmann et al. (J. Immunol. […]

[1] = tested on: Jurkat clon E6-1 leukemia; experiment: MTT in vitro cytotoxicity, Jurkat; details: Homo sapiens, Jurkat cells, concentrations until 100 µM, incubation until 72 h
Excerpt: (§3) IC50 is the compound concentration at which 50% of a specific cell type die in a standardized assay, and thus a measure of cytotoxicity. Jurkat is a human leukaemia T cell line, GLC-4 is a human small-cell lung-carcinoma cell line and NIH-3T3 is a rat non-cancerous cell line. [drawing 3]
(§4) These compounds have been tested in a greater number of different cell lines. IC50 is the compound concentration at which 50% of a specific cell type die in a standardized assay, and thus a measure of cytotoxicity. Jurkat is a human leukaemia T cell line, GLC-4 is a human small-cell lung-carcinoma cell line, NIH-3T3 is a rat non-cancerous cell line, K-562 is a human chronic myelogenous leukemia cell line, A549 is a human lung carcinoma cell line, RPMI-1788 is a human leukocytes of peripherial blood from healthy […] cell line, MCF-7 is a human breast adenocarcinoma cell line, Capan-2 is a human pancreas adenocarcinoma cell line, Colo320HSR is a human colon carcinoma cell line, SW-837 is a human rectum adenocarcinoma cell line, IM-9 is a human bone marrow myeloma cell line, IMR-32 is a human neuroblastoma cell line and MT-4 is a human mixed heart's and peripheral blood's lymphocytes of patients with T-cell leukemia cell line. Table 2. Biological activities of IIIa-IIIg.
(§5) The in vitro cytotoxicity of the compounds of the present invention was evaluated by colorimetric assays with tetrazol salts (MTT) on Jurkat clon E6-1 leukemia, on GLC-4 clon carcinoma, on K-562 chronic myelogenous leukemia, on A549 lung carcinoma, on RPMI-1788 leukocytes of peripherial blood from healthy […], on MCF-7 breast adenocarcinoma, on Capan-2 pancreas adenocarcinoma, on Colo320HSR colon carcinoma, on SW-837 rectum adenocarcinoma, on IM-9 bone marrow myeloma, on IMR-32 neuroblastoma and on MT-4 mixed heart's and peripheral blood's lymphocytes of patients with T-cell leukemia human cell lines, according to the protocol described by Mosmann et al. (J. Immunol. Methods, 1983,65, 55-63) incorporated herein by reference. In all cases the concentrations used were until 100 µM and times of incubation until 72 h. […] Table 3. Biological activities.

IMR-32 neuroblastoma = experiment: MTT in vitro cytotoxicity, IMR-32; details: Homo sapiens, IMR-32 cells, concentrations until 100 µM, incubation until 72 h
Method: as §1, §2

[2] = tested on: RPMI-1788 leukocytes of peripherial blood from healthy person; experiment: MTT in vitro cytotoxicity, RPMI-1788; details: Homo sapiens, RPMI-1788 cells (from healthy person), concentrations until 100 µM, incubation until 72 h
Excerpt: as §4, §5

[3] = tested on: Colo320HSR colon carcinoma; experiment: MTT in vitro cytotoxicity, Colo320HSR; details: Homo sapiens, Colo-320HSR cells, concentrations until 100 µM, incubation until 72 h
Method: as §1, §2

[4] = tested on: SW-837 rectum adenocarcinoma; experiment: MTT in vitro cytotoxicity, SW-837; details: Homo sapiens, SW837, SW-837 cells, concentrations until 100 µM, incubation until 72 h
Method: as §1, §2

[5] = tested on: K-562 chronic myelogenous leukemia; experiment: MTT in vitro cytotoxicity, K-562; details: Homo sapiens, K562, K-562 cells, concentrations until 100 µM, incubation until 72 h
Excerpt: as §4, §5

[6] = tested on: Capan-2 pancreas adenocarcinoma; experiment: MTT in vitro cytotoxicity, Capan-2; details: Homo sapiens, Capan-2 cells, concentrations until 100 µM, incubation until 72 h
Method: as §1, §2

[7] = tested on: MCF-7 breast adenocarcinoma; experiment: MTT in vitro cytotoxicity, MCF-7; details: Homo sapiens, MCF7, MCF-7 cells, concentrations until 100 µM, incubation until 72 h
Method: as §1, §2

A549 lung carcinoma = experiment: MTT in vitro cytotoxicity, A549; details: Homo sapiens, A549 cells, concentrations until 100 µM, incubation until 72 h
Excerpt: as §4, §5

NIH-3T3 = experiment: Cytotoxicity in non-cancerous cell line NIH-3T3; details: NIH3T3; NIH-3T3 non-cancerous cell line
Excerpt: as §3, §4

GLC-4 = experiment: MTT in vitro cytotoxicity, GLC-4; details: Homo sapiens, GLC4, GLC-4 cells, concentrations until 100 µM, incubation until 72 h
Excerpt: as §3, §4, §5

[8] = tested on: MT-4 mixed heart's and peripheral blood's lymphocytes of patients with T-cell leukemia; experiment: MTT in vitro cytotoxicity, MT-4; details: Homo sapiens, MT4, MT-4 cells, concentrations until 100 µM, incubation until 72 h
Method: as §1, §2

For `CN(CCCNC(=O)c1c2cc(Cl)ccc2nc2c1[nH]c1ccccc12)CCCNC(=O)c1c2cc(Cl)ccc2nc2c1[nH]c1ccccc12` [IIIa, N,N'-(4-methyl-4-azaheptamethylene)-di-(-2-chloro-10H-indolo[3,2-b]quinoline)-11,11'-arboxamide], the IC50 (IM-9 bone marrow myeloma) was 4.6 µM, the IC50 [1] was 0.09 µM and the IC50 (IMR-32 neuroblastoma) was 0.9 µM. For the same compound, the IC50 [2] was 3 µM, the IC50 [3] was 0.45 µM and the IC50 [4] was 6.2 µM. The IC50 [5] was 0.65 µM, the IC50 [6] was 20.1 µM and the IC50 [7] was 3.4 µM. For the same compound, the IC50 (A549 lung carcinoma) was 12.2 µM, the IC50 (NIH-3T3) was 11.2 µM and the IC50 (GLC-4) was 0.16 µM. For the same compound, the IC50 [8] was 4.5 µM.
For `CN(CCCNC(=O)c1c2cc(F)ccc2nc2c1[nH]c1ccccc12)CCCNC(=O)c1c2cc(F)ccc2nc2c1[nH]c1ccccc12` [IIIb, N,N'-(4-methyl-4-azaheptamethylene)-di-(-2-fluoro-10H-indolo[3,2-b]quinoline)-11,11'-carboxamide], the IC50 (IM-9 bone marrow myeloma) was 7.5 µM, the IC50 [1] was 0.5 µM and the IC50 (IMR-32 neuroblastoma) was 0.7 µM. For the same compound, the IC50 [2] was 5.3 µM, the IC50 [3] was 3.2 µM and the IC50 [4] was 17.9 µM. For the same compound, the IC50 [5] was 1.1 µM, the IC50 [6] was 25.5 µM and the IC50 [7] was 4.8 µM. For the same compound, the IC50 (A549 lung carcinoma) was 10 µM, the IC50 (NIH-3T3) was 64.3 µM and the IC50 [8] was 9 µM.
With `CN(CCCNC(=O)c1c2cc(Br)ccc2nc2c1[nH]c1ccccc12)CCCNC(=O)c1c2cc(Br)ccc2nc2c1[nH]c1ccccc12` [IIIc, N,N'-(4-methyl-4-azaheptamethylene)-di-(-2-bromo-10H-indolo[3,2-b]quinoline)-11,11'-carboxamide] the IC50 [1] was 0.8 µM and the IC50 [2] was 9.1 µM.
`CN(CCCNC(=O)c1c2cc(Cl)ccc2nc2c1[nH]c1ccccc12)CCCNC(=O)c1c2cc(Br)ccc2nc2c1[nH]c1ccccc12` [IIId, N-[3-[[3-[11-((2-bromo-10H-indolo[3,2-b]quinoline)carbonyl)amino]-propyl]-methylamino]propyl]-2-chloro-10H-indolo[3,2-b]quinoline-11-carboxamide] gave an IC50 [1] of 0.6 µM, an IC50 [2] of 3.5 µM and an IC50 [5] of 5.3 µM. The IC50 (A549 lung carcinoma) was 12.9 µM.
Compound `CN(CCCNC(=O)c1c2cc(F)ccc2nc2c1[nH]c1ccccc12)CCCNC(=O)c1c2cc(Cl)ccc2nc2c1[nH]c1ccccc12` [IIIe, N-[3-[[3-[11-((2-chloro-10H-indolo[3,2-b]quinoline)carbonyl)amino]-propyl]-methylamino]propyl]-2-fluoro-10l-l-indolo[3,2-b]quinoline-11-carboxamide] has an IC50 [1] of 0.5 µM, an IC50 [2] of 2.9 µM and an IC50 [5] of 6.1 µM. The IC50 (A549 lung carcinoma) was 11.6 µM.
`CN(CCCNC(=O)c1c2ccccc2nc2c1[nH]c1ccccc12)CCCNC(=O)c1c2cc(F)ccc2nc2c1[nH]c1ccccc12` [IIIf, N-[3-[[3-[11-((2-fluoro-10H-indolo[3,2-b]quinoline)carbonyl)amino]-propyl]-methylamino]propyl]-10H-indolo[3,2-b]quinoline-11-carboxamide] gave an IC50 [1] of 0.2 µM, an IC50 [2] of 1.7 µM and an IC50 [5] of 2.8 µM. The IC50 (A549 lung carcinoma) was 1.6 µM.
Work on `CN(CCCNC(=O)c1c2ccccc2nc2c1[nH]c1ccccc12)CCCNC(=O)c1c2cc(Cl)ccc2nc2c1[nH]c1ccccc12` [IIIg, N-[3-[[3-[11-((2-chloro-10H-indolo[3,2-b]quinoline)carbonyl)amino]-propyl]-methylamino]propyl]-10H-indolo[3,2-b]quinoline-11-carboxamide] yielded an IC50 [1] of 0.7 µM, an IC50 [2] of 3.2 µM and an IC50 [5] of 5.8 µM. The IC50 (A549 lung carcinoma) was 6.2 µM.
Compound `O=C(O)c1c2cc(Cl)ccc2nc2c1[nH]c1ccccc12` [IIa] has an IC50 [1] greater than 25 µM and an IC50 (GLC-4) of 15.7 µM.
With `O=C(O)c1c2cc(F)ccc2nc2c1[nH]c1ccccc12` [IIb] the IC50 [1] was 13 µM and the IC50 (GLC-4) was 12 µM.
With `O=C(O)c1c2cc(Br)ccc2nc2c1[nH]c1ccccc12` [IIc] the IC50 [1] was greater than 25 µM.
With `CN(CCCNC(=O)c1c2ccccc2nc2c1[nH]c1ccccc12)CCCNC(=O)c1c2ccccc2nc2c1[nH]c1ccccc12` [Ia, reference compound] the IC50 [1] was 0.97 µM, the IC50 (NIH-3T3) was 6.77 µM and the IC50 (GLC-4) was 1.45 µM.
